Results taken from patent publication US5373040A, “Amorphous solid modification of 2,2',2"-nitrilo[triethyl-tris-(3,3',5,5'-tetra-tert-butyl-1,1'-biphenyl- 2,2'-diyl)phosphite]” (Ciba-Geigy Corporation, priority 1993, dated 1994).

Tests used:
[1] = Process stabilization of polypropylene at 525° F.: melt flow rate (ASTM D1238); conditions: in the presence of a representative phenolic antioxidant; versus prior art compound of U.S. Pat. No. 4,318,845
Description: The test additives are incorporated into the polypropylene by dry blending or, when the additive is a liquid, using a minimum amount of methylene chloride solvent. The solvent is then removed by evaporation under reduced pressure.
After each of the first, third and fifth extrusions, the melt flow rate (in grams/10 minutes) is determined by ASTM method D1238 on the pellets obtained from the extruder.

[2] = Stabilization of unsaturated elastomer: time until onset of crosslinking; conditions: 0.5% by weight, 150° C., 60 rpm; versus unstabilized SBR
Description: The instant compound of Example 1 is evaluated in an emulsion of SBR (cold polymerized, 23.5% styrene with a 52 Mooney Viscosity). The unstabilized SBR (60 g) is added to the mixing chamber of a Brabender Plasticorder set at 150° C. and 60 rpm. After 30 seconds, 0.5% by weight of the compound of instant Example 1 is added to the chamber. Stability of the SBR is determined by the time until onset of crosslinking of the rubber as indicated by an increase in the torque curve.

[3] = Stabilization of polyol: discoloration or scorch of foam; conditions: 1000 ppm plus BHT 2000 ppm and NAUGARD 445 2000 ppm; versus control stabilizer package
Description: A premix of 10 g of water, 0.25 g of triethylenetetramine, 2 g of L-5740 (silicone surfactant, Union Carbide) and 20 g of ANTIBLAZE® AB-100 (chlorinated aromatic flame retardant, Albright & Wilson) is added to 200 g of 3000 molecular weight polyether polyol containing the stabilizer package listed below*. The mixture is stirred for five minutes with a high speed Lightning Mixer. Then 0.4 g of stannous octoate is added and the mixture is stirred for 5 seconds. Finally, 125 g of toluene diisocyanate ([…]) is added. The mixture is stirred for 7 seconds at high speed mixing and is then poured into a 10"×10"×5" (25.4 cm×25.4 cm×12.7 cm) cardboard box. The foam is allowed to rise completely. After standing 5 minutes, the box is removed and the sample cured in a microwave over for five minutes at 50% power. The foam is then immediately air over cured at 125° C. for three minutes. The foams are then cut in half for visual assessment of discoloration or scorch.
Control is 2,6-di-tert-butyl-4-methylphenol (BHT) 2000 ppm; and NAUGARD® 445 (diphenylamine antioxidant, Uniroyal) 2000 ppm.
Instant package is the above plus 1000 ppm of the compound of Example 1.

[4] = Stabilization of polycarbonate: yellowness index; conditions: 0.08 weight percent plus 0.3 weight percent TINUVIN 329; versus UV absorber alone
Description: Additive free bisphenol A polycarbonate (LEXAN® 141-111N, General Electric) is dried and blended with 0.3 weight percent of a benzotriazole UV absorber TINUVIN® 329, Ciba-Geigy) and 0.08 weight percent of instant compound of Example 1. The mixture is extruded and pelletized at 550° F. (288° C.) on a 1" (2.54 cm) single screw extruder. Injection molded plaques (2"×2"×125 mil; 5.08 cm×5.08 cm×3.175 mm) are prepared in a BOY 30M injection molder at 560° F. (293° C.) with a mold temperature of 150° C. The resulting plaques are measured for yellowness index (YI) using ASTM D 1925-70.

[5] = Stabilization of 6,6-nylon: yellowness index; conditions: 0.5% by weight; versus unstabilized control plaques
Description: 6,6-Nylon (ZYTEL® 101, DuPont) is thoroughly dried in a vacuum oven and tumble blended with 0.5% by weight of the compound of instant Example 1. The polyamide is extruded on a 1" (2.54 cm) MPM extruder at 575° F. (302° C.). The collected pellets are injection molder at 575° F. (302° C.) with the mold at 150° C. in a BOY 30M injection molder. The plaques obtained are measured for yellowness index (YI) values using ASTM D1925-70.

[6] = Stabilization of ABS: yellowness index; conditions: 0.25 g per 100 g of ABS; air oven at 180° C. for 45 minutes; versus unstabilized ABS resin
Description: A solution of 0.25 g of the instant compound of Example 1 in 40 ml of hexane/methanol is added to a rapidly stirred suspension of 100 g of ABS (acrylonitrile/butadiene/styrene terpolymer) in 600 g of water. The suspension is filtered and dried under vacuum at 40° C. for 40 hours. To the dried powder is added 2% by weight of titanium dioxide and 1% by weight of N,N'-ethylenebisstearamide on a two roll mill at 180° C. over four minutes. Compression molded plaques (0.8 mm) are prepared at 175° C. and placed in an air oven at 180° C. for 45 minutes. The color of said plaques are determined as yellowness index values using ASTM D1925-70.

With `CC(C)(C)c1cc(C(C)(C)C)c2op(OCCN(CCOp3oc4c(C(C)(C)C)cc(C(C)(C)C)cc4c4cc(C(C)(C)C)cc(C(C)(C)C)c4o3)CCOp3oc4c(C(C)(C)C)cc(C(C)(C)C)cc4c4cc(C(C)(C)C)cc(C(C)(C)C)c4o3)oc3c(C(C)(C)C)cc(C(C)(C)C)cc3c2c1` [Example 1, 2,2',2"-nitrilo[triethyl-tris-(3,3',5,5'-tetra-tert-butyl-1,1'-biphenyl-2,2'-diyl)phosphite]] the “stabilizing polypropylene against thermal and oxidative degradation (change in melt flow rate)” value [1] was “equal or more effective”, the “induction time till crosslinking occurs” value [2] was “longer induction time” and the “discoloration of foam (visual inspection)” value [3] was “less discolored”. For the same compound, the scorch protection [3] was “better scorch protection”, the “yellowness index (YI)” value [4] was “lower YI values” and the “yellowness index (YI)” value [5] was “lower YI values (less discoloration)”. For the same compound, the yellowness index [6] was “lower yellowness index values (less discoloration)”.
